Test results reported in PMC12114619, “Nifuroxazide and 4-Hydroxybenzhydrazone Derivatives as New Antiparasitic (Trypanosoma cruzi and Leishmania mexicana) and Anti-Mycobacterium tuberculosis Agents” (Pharmaceutics, 2025).
≈ marks a conversion by molar mass, not a printed value. Where “and” joins values, the source holds several entries; their conditions need not be identical. Equal entries are not always repeated. Where two headings read alike, the source gives them in different places.

Tests used:
[1] = system: T. cruzi NINOA (MHOM/MX/1994/NINOA) strain epimastigotes; assay: Trypanocidal activity, T. cruzi epimastigotes, NINOA strain (resazurin); format: cell-based, Trypanosoma cruzi; settings: 48 h
[2] = system: T. cruzi strain A1 epimastigotes; assay: Trypanocidal activity, T. cruzi epimastigotes, A1 strain (resazurin); format: cell-based, Trypanosoma cruzi; settings: 48 h
[3] = system: M. tuberculosis H37Rv (ATCC 27294); assay: Anti-Mycobacterium activity, microplate Alamar Blue Assay (MABA); format: cell-based, Mycobacterium tuberculosis; settings: H37Rv strain, minimum concentration achieving 90% inhibition; for MIC: Mycobacterium tuberculosis
Procedure: The reference strain H37Rv (ATCC 27294) of M. tuberculosis was utilized to assess anti-M. tuberculosis activity using the microplate Alamar Blue Assay (MABA), as previously reported. Samples underwent evaluation in triplicate independent experiments. Isoniazid, rifampicin, moxifloxacin, and linezolid were included as reference drugs, and the minimum drug concentration that achieved 90% inhibition was recorded as the minimum inhibitory concentration (MIC).

[4] = system: L. mexicana MNYC/BZ/62/M379 promastigotes; assay: Leishmanicidal activity, L. mexicana promastigotes, M379 strain (MTT); format: cell-based, Leishmania mexicana; settings: 48 h
Procedure: (§1) For leishmanicidal assays, the reference strain (MNYC/BZ/62/M379) and the isolate (MHOM/MX/2017/UABJO17FCQEPS) of L. mexicana were used. Promastigotes were cultured in RPMI 1640 medium supplemented with 10% FBS, 100 U/mL penicillin-100 […] streptomycin, and glutamine (2 mM). 100 µL parasites (5 × 10^5/mL) were added in a 96-well plate, and 100 µL of appropriate concentrations (0.78 to 200 µM) of each sample dissolved in DMSO and incubated for 48 h at 26 °C. Wells containing promastigotes with DMSO 0.2% were used as a negative control, and the reference drug glucantime was included as the positive control. The 3-(4,5-Dimethylthiazol-2-yl)-2,5-diphenyltetrazolium bromide (MTT) was used to measure metabolic activity. The IC50 values were calculated with the probit statistical tool. All samples were evaluated in triplicate in three independent experiments.

[5] = system: L. mexicana MHOM/MX/2017/UABJO17FCQEPS promastigotes; assay: Leishmanicidal activity, L. mexicana promastigotes, FCQEPS isolate (MTT); format: cell-based, Leishmania mexicana; settings: 48 h, FCQEPS strain
Procedure: as §1

[6] = Cytotoxicity on macrophages (MTT); format: cell-based, mouse; settings: mouse
Procedure: Cytotoxicity was assessed on J774.2 mouse macrophage cells (ATCC® TIB-67, ATCC, Manassas, VA, USA). Cells were cultured in RPMI medium supplemented with 10% SFB, 100 U µg/mL penicillin-100 mg/mL streptomycin, and glutamine (2 mM) at 37 °C and in a 5% CO2 atmosphere. A known concentration of cells (1 × 10^6/mL) was incubated with the compounds at different concentrations (0.78 to 200 µM) for 48 h at 37 °C in a CO2 atmosphere (5%). Wells containing cells treated with 0.2% DMSO were used as a negative control. MTT was employed to evaluate the metabolic activity. Next, the cell viability was calculated (%), and the cytotoxic concentration (CC50) was determined with probit analysis. All samples were evaluated in triplicate in three independent experiments.

[7] = Cytotoxicity (CC50) Macrophages J774.2

O=C(Cn1ccnc1[N+](=O)[O-])NCc1ccccc1 [Benznidazole, reference compound]
IC50 ([1]; listed as Bzn): 30 µM | IC50 ([1]; Trypanosoma cruzi): > 30 µM | IC50 [2]: 39.1 ± 0.7 µM | IC50 ([2]; Trypanosoma cruzi): 39 µM

NNC(=O)c1ccncc1 [Isoniazid, reference compound]
MIC [3]: 0.039 µg/mL (≈ 0.284 µM)

CC(=O)NC[C@H]1CN(c2ccc(N3CCOCC3)c(F)c2)C(=O)O1 [Linezolid, reference compound]
MIC [3]: 0.33 µg/mL (≈ 0.978 µM)

COc1c(N2C[C@@H]3CCCN[C@@H]3C2)c(F)cc2c(=O)c(C(=O)O)cn(C3CC3)c12 [Moxifloxacin, reference compound]
MIC [3]: 0.184 µg/mL (≈ 0.458 µM)

O=C(N/N=C/c1ccc([N+](=O)[O-])o1)c1ccc(O)cc1 [Nfz, Nifuroxazide]
IC50 ([1]; Trypanosoma cruzi): 36 ± 1.2 µM | IC50 [2]: 10.4 ± 1.6 µM | IC50 ([2]; Trypanosoma cruzi): 10.4 µM | IC50 L. mexicana M379 [4]: no leishmanicidal effects | IC50 ([4]; Leishmania mexicana): > 200 µM | IC50 ([5]; Leishmania mexicana): 51.2 ± 4.2 µM | MABA MIC [3]: 12.3 µg/mL | MIC [3]: < 20 µg/mL | CC50 at 48 h ([6]; J774.2 macrophage cells, J774.2 macrophages, 48 h, MTT, read-out: Cytotoxicity (CC50) Macrophages J774.2): 42.2 ± 2.3 µM

O=C(N/N=C/c1ccc([N+](=O)[O-])s1)c1ccc(O)cc1 [Nfz-1]
IC50 [1]: 11.9 ± 3.2 µM | IC50 ([1]; Trypanosoma cruzi): 11.9 µM | IC50 [2]: 14 ± 1.9 µM | IC50 ([2]; Trypanosoma cruzi): < 15 µM | IC50 L. mexicana M379 [4]: no leishmanicidal effects | IC50 ([4]; Leishmania mexicana): > 200 µM | IC50 [5]: 32.9 ± 7 µM | IC50 ([5]; Leishmania mexicana): < 40 µM | CC50 at 48 h [6, 7]: 43.3 ± 2.7 µM

O=C(N/N=C/c1ccc(Br)s1)c1ccc(O)cc1 [Nfz-2]
IC50 [1]: 4.77 ± 5.6 µM | IC50 ([1]; Trypanosoma cruzi): 4.7 µM | IC50 ([2]; Trypanosoma cruzi): > 100 µM | IC50 L. mexicana M379 [4]: no leishmanicidal effects | IC50 ([4]; Leishmania mexicana): > 200 µM | IC50 ([5]; Leishmania mexicana): 98.8 ± 5.2 µM | MABA MIC [3]: 18.8 µg/mL | MIC [3]: < 20 µg/mL | CC50 at 48 h [6, 7]: 95.5 ± 4.2 µM

O=C(N/N=C/c1cccs1)c1ccc(O)cc1 [Nfz-3]
IC50 [1]: 51 ± 2.8 µM | IC50 ([1]; Trypanosoma cruzi): > 50 µM | IC50 [2]: 20 ± 1.9 µM | IC50 ([2]; Trypanosoma cruzi): 19.9 µM | IC50 L. mexicana M379 [4]: no leishmanicidal effects | IC50 ([4]; Leishmania mexicana): > 200 µM | IC50 ([5]; Leishmania mexicana): 49.8 ± 5 µM | MIC [3]: > 100 µg/mL

O=C(N/N=C/c1ccco1)c1ccc(O)cc1 [Nfz-4]
IC50 [1]: 19 ± 2.1 µM | IC50 ([1]; Trypanosoma cruzi): 18.8 µM | IC50 [2]: 28.9 ± 3.4 µM | IC50 ([2]; Trypanosoma cruzi): 28.8 µM | IC50 ([4]; Leishmania mexicana): 83.9 ± 6.9 µM | IC50 ([5]; Leishmania mexicana): > 200 µM | MIC [3]: > 100 µg/mL | CC50 at 48 h [6, 7]: > 100 µM

Cn1cccc1/C=N/NC(=O)c1ccc(O)cc1 [Nfz-5]
IC50 T. cruzi NINOA [1]: inactivity | IC50 ([1]; Trypanosoma cruzi): > 100 µM | IC50 [2]: 78.5 ± 4.7 µM | IC50 ([2]; Trypanosoma cruzi): > 100 µM | IC50 [4]: 5.25 ± 5.8 µM | IC50 ([4]; Leishmania mexicana): 5.2 µM | IC50 ([5]; Leishmania mexicana): > 200 µM | MIC [3]: > 100 µg/mL | CC50 at 48 h [6, 7]: 21.9 ± 4.4 µM

O=C(N/N=C/c1ccccc1)c1ccc(O)cc1 [Nfz-6]
IC50 T. cruzi NINOA [1]: inactive | IC50 ([1]; Trypanosoma cruzi): > 100 µM | IC50 [2]: 74.4 ± 4.4 µM | IC50 ([2]; Trypanosoma cruzi): > 70 µM | IC50 [4]: 94.22 ± 0.9 µM | IC50 ([4]; Leishmania mexicana): > 90 µM | IC50 ([5]; Leishmania mexicana): > 200 µM | MIC [3]: > 100 µg/mL | CC50 at 48 h [6, 7]: 28.8 ± 1.5 µM

Cc1ccc(/C=N/NC(=O)c2ccc(O)cc2)cc1 [Nfz-7]
IC50 [1]: 26 ± 2.9 µM | IC50 ([1]; Trypanosoma cruzi): 26 µM | IC50 [2]: 75.2 ± 8.8 µM | IC50 ([2]; Trypanosoma cruzi): > 70 µM | IC50 ([5]; Leishmania mexicana): 103 ± 2.1 µM | MIC [3]: 98.3 µg/mL (≈ 387 µM) | CC50 at 48 h [6, 7]: 91.7 ± 5.1 µM

CCc1ccc(/C=N/NC(=O)c2ccc(O)cc2)cc1 [Nfz-8]
IC50 [1]: 14.5 ± 4.4 µM | IC50 ([1]; Trypanosoma cruzi): 14.4 µM | IC50 [2]: 7.28 ± 2.2 µM | IC50 ([2]; Trypanosoma cruzi): 7.2 µM | IC50 ([5]; Leishmania mexicana): > 200 µM | MIC [3]: 79.4 µg/mL (≈ 296 µM) | CC50 at 48 h [6, 7]: > 100 µM

O=C(N/N=C/c1ccc(O)cc1)c1ccc(O)cc1 [Nfz-9]
IC50 ([1]; Trypanosoma cruzi): 24.9 ± 3.2 µM | IC50 ([2]; Trypanosoma cruzi): > 100 µM | IC50 ([5]; Leishmania mexicana): 94.3 ± 5.9 µM | MIC [3]: 94.1 µg/mL (≈ 367 µM) | CC50 at 48 h [6, 7]: 82.7 ± 4.4 µM

O=C(N/N=C/c1ccccc1O)c1ccc(O)cc1 [Nfz-10]
IC50 ([1]; Trypanosoma cruzi): > 100 µM | IC50 [2]: 8.77 ± 1.6 µM | IC50 ([2]; Trypanosoma cruzi): 8.7 µM | IC50 [4]: 66.7 ± 2.9 µM | IC50 ([4]; Leishmania mexicana): > 50 µM | IC50 ([5]; Leishmania mexicana): > 200 µM | MABA MIC [3]: 47.6 µg/mL | MIC [3]: < 50 µg/mL | CC50 at 48 h [6, 7]: > 100 µM

COc1ccc(/C=N/NC(=O)c2ccc(O)cc2)cc1 [Nfz-11]
IC50 [1]: 28.2 ± 1.4 µM | IC50 ([1]; Trypanosoma cruzi): 28.2 µM | IC50 [2]: 18.2 ± 1.4 µM | IC50 ([2]; Trypanosoma cruzi): 18.1 µM | IC50 ([4]; Leishmania mexicana): > 200 µM | IC50 ([5]; Leishmania mexicana): > 200 µM | MIC [3]: > 100 µg/mL | CC50 at 48 h [6, 7]: 46.6 ± 4.9 µM

COc1ccccc1/C=N/NC(=O)c1ccc(O)cc1 [Nfz-12]
IC50 T. cruzi NINOA [1]: inactivity | IC50 ([1]; Trypanosoma cruzi): > 100 µM | IC50 ([2]; Trypanosoma cruzi): > 100 µM | IC50 [4]: 11.5 µM and 11.6 µM | IC50 ([4]; Leishmania mexicana): < 20 µM | IC50 ([5]; Leishmania mexicana): 60.3 ± 4.7 µM | MIC [3]: > 100 µg/mL | CC50 at 48 h [6, 7]: 76.5 ± 3.6 µM

COc1cccc(/C=N/NC(=O)c2ccc(O)cc2)c1OC [Nfz-13]
IC50 [1]: 63.1 ± 1.4 µM | IC50 ([1]; Trypanosoma cruzi): > 60 µM | IC50 ([2]; Trypanosoma cruzi): > 100 µM | IC50 ([4]; Leishmania mexicana): 162 ± 6.9 µM | IC50 ([5]; Leishmania mexicana): 124.5 ± 1.1 µM | MIC [3]: 158 µg/mL (≈ 525 µM) | CC50 at 48 h [6, 7]: > 100 µM

COc1cc(/C=N/NC(=O)c2ccc(O)cc2)cc(OC)c1OC [Nfz-14]
IC50 ([1]; Trypanosoma cruzi): 28 ± 1.9 µM | IC50 [2]: 29.2 ± 4.4 µM | IC50 ([2]; Trypanosoma cruzi): 29.2 µM | IC50 ([4]; Leishmania mexicana): > 200 µM | IC50 [5]: 10.3 ± 0.8 µM | IC50 ([5]; Leishmania mexicana): 10.2 µM | MIC [3]: > 200 µg/mL | CC50 at 48 h [6, 7]: > 100 µM

CC(=O)Nc1ccc(/C=N/NC(=O)c2ccc(O)cc2)cc1 [Nfz-24]
IC50 [2]: 22.2 ± 1.4 µM | IC50 ([2]; Trypanosoma cruzi): 22.1 µM | IC50 [4]: 54.2 ± 4 µM | IC50 ([4]; Leishmania mexicana): 54.1 µM | IC50 ([5]; Leishmania mexicana): 55.8 ± 3.5 µM | MIC [3]: > 100 µg/mL | CC50 at 48 h [6, 7]: > 100 µM

CC1CS(=O)(=O)CCN1/N=C/c1ccc([N+](=O)[O-])o1 (stereo not shown) [Nifurtimox, reference compound]
IC50 [1]: 7.09 ± 0.2 µM | IC50 ([1]; listed as Nfx): 7 µM | IC50 ([1]; Trypanosoma cruzi): > 7 µM | IC50 ([2]; Trypanosoma cruzi): 19.3 ± 0.8 µM

CO[C@H]1/C=C/O[C@@]2(C)Oc3c(C)c(O)c4c(O)c(c(/C=N/N5CCN(C)CC5)c(O)c4c3C2=O)NC(=O)/C(C)=C\C=C\[C@H](C)[C@H](O)[C@@H](C)[C@@H](O)[C@@H](C)[C@H](OC(C)=O)[C@@H]1C [Rifampin, reference compound]
MIC [3]: 0.074 µg/mL (≈ 0.0899 µM)
